Assay results reported in PubChem BioAssay (NCI).
Values joined by “and” are separate entries in the source; they are usually repeats but may differ in a detail not shown here. Identical values can stand only once.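 Dose response: 5 concentrations. Exposure: 48 h. Format: 96-well plates. Endpoint: linear interpolation; highest concentration if not reached. Abbreviation: GI50, concentration required for 50% inhibition of growth. TGI: concentration producing complete growth inhibition.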

Tests used:
Experiment in all cases: inhibition of tumour cell growth, NCI panel, 48 h
[1] = system: BT-549 breast
[2] = system: HS 578T breast
[3] = system: LOX IMVI melanoma
[4] = system: MDA-MB-435
[5] = system: RPMI-8226 leukemia
[6] = system: UACC-257 melanoma

Row | SMILES | TGI [1] | TGI [2] | TGI [3] | TGI [4] | TGI [5] | TGI [6] | GI50 [1] | GI50 [3] | GI50 [5] | GI50 [6] | GI50 [4]
1 | Cc1cc(SCC(=O)c2ccc(Br)cc2)cc(C)[o+]1 | 98.4 µM | > 100 µM | > 100 µM | 51.3 µM | 52.3 µM | 65.9 µM |  |  |  |  | 
2 | Brc1ccc(-c2ccc(-c3ccc(Br)s3)s2)s1 | > 100 µM | > 100 µM | > 100 µM | > 100 µM | > 100 µM | > 100 µM |  |  |  |  | 
3 | CCCCN(CCCC)CC(=O)c1ccc2cc(Cl)c3ccccc3c2c1 | 41.8 µM | > 100 µM | > 100 µM | > 100 µM | > 100 µM | 98.9 µM |  |  |  |  | 
4 | Cn1c2ccccc2n2c(=O)c(-c3ccc(O)cc3)nnc12 | > 100 µM | > 100 µM | > 100 µM | > 100 µM |  | > 100 µM |  |  |  |  | 
5 | COc1ccc2c(c1)CCC(CN1CCN(CCOC(c3ccc(F)cc3)c3ccc(F)cc3)CC1)=C2 | 35.6 µM | 50.7 µM | 30.3 µM | 68.9 µM | 36.9 µM | 28.1 µM |  |  |  |  | 
6 | CCOC(=O)c1c(OCC)[nH]c(=O)c(C(c2ccc(F)cc2)c2c(O)c(C(=O)OCC)c(OCC)[nH]c2=O)c1O | 23.6 µM | > 100 µM | 33.1 µM | 37.7 µM | 58.3 µM | 37.3 µM |  |  |  |  | 
7 | Fc1ccc(C(=NCc2ccccc2)N2CCOCC2)cc1 | > 100 µM | > 100 µM | > 100 µM | > 100 µM | > 100 µM | > 100 µM |  |  |  |  | 
8 | N#Cc1ccc(Nc2nc3nc[nH]c3c(=O)[nH]2)cc1 | > 100 µM | > 100 µM | > 100 µM | > 100 µM | > 100 µM | > 100 µM |  |  |  |  | 
9 | c1ccc(/C(=N/Nc2cnccn2)c2ncccn2)cc1 | > 100 µM | > 100 µM |  | > 100 µM | > 100 µM | > 100 µM |  |  |  |  | 
10 | Cc1ccc(Nc2ncnc3sc(SCc4ccccc4)nc23)cc1 | > 100 µM | > 100 µM | > 100 µM | > 100 µM | > 100 µM | > 100 µM |  |  |  |  | 
11 | O=C(O)CCCN1CCCCC1 | > 100 µM | > 100 µM | > 100 µM | > 100 µM | > 100 µM | > 100 µM |  |  |  |  | 
12 | O=c1[nH]c2ccc(CC(=S)N3CCN(c4ccccc4)CC3)cc2s1 | > 100 µM | > 100 µM | > 100 µM | > 100 µM | 49.8 µM | > 100 µM |  |  |  |  | 
13 | CCOC(=O)Cc1csc(/N=C\c2c(O)c3ccccc3oc2=O)n1 |  | > 100 µM | > 100 µM | 85.4 µM | 51.6 µM | 74.5 µM |  |  |  |  | 
14 | COC(=O)CCCc1ccc2c(c1)CCC2 | > 100 µM | > 100 µM | > 100 µM | > 100 µM | > 100 µM | > 100 µM |  |  |  |  | 
15 | COC(=O)CSc1[nH]c2nc(C)nc(Nc3ccccc3)c2c1C#N |  |  | > 10 µM | > 10 µM | > 10 µM | > 10 µM |  |  |  |  | 
16 | CC(=O)OCC1OC(n2c(-c3ccccc3)c(N=Nc3ccc(Cl)cc3)c(C)c(C#N)c2=S)C(OC(C)=O)C(OC(C)=O)C1OC(C)=O (stereo not given) | 20.1 µM and 58.8 µM | 94 µM and 96.9 µM | 43.3 µM and > 100 µM | 41.1 µM and > 100 µM | > 100 µM | > 100 µM | 5.4 µM and 17.9 µM | 11.2 µM and > 100 µM | 6.64 µM and 37.9 µM | 16.5 µM and > 100 µM | 
17 | O=C(/C=C1\N=C(c2ccccc2)N(c2ccc3c(c2)Sc2cc(N4C(=O)/C(=C/C(=O)/C=C/c5ccccc5)N=C4c4ccccc4)ccc2N3)C1=O)/C=C/c1ccccc1 | 52.6 µM | 96.3 µM | 84.9 µM | 44.4 µM | > 100 µM | 83 µM |  |  |  |  | 
18 | N#CC(C(=O)c1ccccc1F)c1nc2cc(C(F)(F)F)ccc2s1 (stereo not given) | 69.4 µM |  | 36.7 µM | > 100 µM | 85 µM | > 100 µM |  |  |  |  | 
19 | CCOC(=O)Nc1ccc(S(=O)(=O)Nc2ccc(Br)cc2)cc1 | > 100 µM | > 100 µM | > 100 µM | > 100 µM | > 100 µM | > 100 µM |  |  |  |  | 
20 | COC(=O)c1nc2c(C)c(O)c(O)c([C@H](C)CCC=C(C)C)c2o1 | > 100 µM | 87.4 µM | > 100 µM | > 100 µM | > 100 µM | 78 µM |  |  |  |  | 
21 | C=C(C)C1CC2=C(C(=O)OC)C=C(O2)C(C(=C)C)[C@@H]2OC(=O)/C(=C\C1O)[C@H]2N(C)C (stereo not given in full) | 24.3 µM | 44.2 µM | 24.2 µM | 25 µM | 14.9 µM | 37.1 µM |  |  |  |  | 
22 | C(=N\NC1=NCCCN1)/c1ccc(-c2cn3cc(/C=N/NC4=NCCCN4)ccc3n2)cc1 | > 100 µM |  | > 100 µM | > 100 µM | > 88.6 µM | > 100 µM |  |  |  |  | 
23 | CC(=O)C1=CC=C/C1=N\Nc1ccccc1 | 27.4 µM | 34.9 µM | 9.02 µM | 27.4 µM | 7.75 µM | 33.5 µM |  |  |  |  | 
24 | COc1ccc(N=NN2CCCC2)cc1 | 60.6 µM | > 100 µM | 37.2 µM | > 100 µM | 74.1 µM | > 100 µM |  |  |  |  | 
25 | NC(=O)c1cc2ccccc2c(N=Nc2ccccc2)c1O | > 100 µM | > 100 µM | > 100 µM | > 100 µM | > 100 µM | > 100 µM |  |  |  |  | 
26 | Cc1nc2c(=O)[nH]c(=O)nc-2n(CCO)c1C | > 100 µM | > 100 µM | > 100 µM | > 100 µM | > 100 µM | > 100 µM |  |  |  |  | 
27 | COc1cc(-c2ccc(-c3ccc(C(=N)N)s3)s2)cc(OC)c1OC |  |  |  | 3.09 µM | 5.72 µM | 4.02 µM |  |  | 2.46 µM | 2.22 µM | 1.64 µM
28 | CC(C)C[C@H](NC(=O)[C@@H](Cc1cccc2ccccc12)NC(=O)N1CCOCC1)B(O)O | 18.1 µM | > 25.6 µM | 5.98 µM | 3.79 µM | 17.4 µM | 5.18 µM |  |  |  |  | 
